Each compound was assayed on miR-21 (assay: High throughput primary miR-21 FLuc reporter assay (concentration-response)). Conditions: HeLa Luc-miR-21 reporter, 48-hour incubation.
Assay type: cell-based, human
Description: Primary miR-21 Assay. The primary miR-21 FLuc reporter assay is carried out with HeLa cells expressing the Luc-miR-21 reporter using a 48-hour incubation time. Active compounds that increase the luciferase response are identified based upon inhibition of miR-21.
SAR. The concentration-response data for the entire high throughput screen is plotted and modeled by a four parameter logistic fit and SAR analysis is performed according to conventional approaches (Iglese, et al. (2006) Proc. Natl. Acad. Sci. USA […]:11473-8). In brief, Class 1.1 and 1.2 are full curves containing upper and lower asymptotes with efficacy ≧80% and <80%, respectively. Class 2.1 and 2.2 are incomplete curves having only one asymptote with efficacy ≧80% and <80%, respectively. Class 3 curves show activity at only the highest concentration or are poorly fit. […] For SAR analysis, compounds associated with Class 1 and 2.1 curves are clustered using LEADSCOPE® fingerprints. […] Compounds sharing a common scaffold form a series. Candidate series and singletons are chosen for follow up studies. For each lead or series, an appropriate library design method (e.g., point substitution library or matrix library) is selected. Typically, precursors are synthesized and a library of 15-25 compounds is produced for analysis in the above-described assays.

Going from `CC(C)c1ccc2nc(SCC(=O)NCC3CCCO3)c(C#N)cc2c1` (stereo not drawn) [Compound 135, CC(C)C1═C/C═C2/N═C(SCC(═O)NCC3CCCO3)\C(═C/C\2═C\1)C#N] to `Nc1[nH]cnc2nc(SCC(=O)Nc3ccccc3F)nc1-2` [Compound 154, N\C1═C2/N═C(SCC(═O)NC3═C/C═C\C═C\3F)\N═C\2\N═C/N1], the Efficacy falls from −60.74 to −64.80.

Same assay, conditions: HeLa Luc-miR-21 reporter, 48-hour incubation, four parameter logistic fit

`CC(C)c1ccc2nc(SCC(=O)NCC3CCCO3)c(C#N)cc2c1` (stereo not drawn) [Compound 135, CC(C)C1═C/C═C2/N═C(SCC(═O)NCC3CCCO3)\C(═C/C\2═C\1)C#N] and `Nc1[nH]cnc2nc(SCC(=O)Nc3ccccc3F)nc1-2` [Compound 154, N\C1═C2/N═C(SCC(═O)NC3═C/C═C\C═C\3F)\N═C\2\N═C/N1] are the same in “Curve Class” value: −2.2 for the first, −2.2 for the second.

Same assay, conditions: HeLa Luc-miR-21 reporter, 48-hour incubation; read-out: AC50

First: CC(C)c1ccc2nc(SCC(=O)NCC3CCCO3)c(C#N)cc2c1 (stereo not drawn) [Compound 135, CC(C)C1═C/C═C2/N═C(SCC(═O)NCC3CCCO3)\C(═C/C\2═C\1)C#N]
Second: Nc1[nH]cnc2nc(SCC(=O)Nc3ccccc3F)nc1-2 [Compound 154, N\C1═C2/N═C(SCC(═O)NC3═C/C═C\C═C\3F)\N═C\2\N═C/N1]
The AC50 of the first is 2.5-fold lower: 5.85 µM for the first, 14.7 µM for the second.

Same assay, conditions: Homo sapiens, HeLa, 48 h, HeLa Luc-miR-21 reporter, 48-hour incubation; read-out: AC50

`CCC(=O)Nc1ccc(NC(=O)C23CC4CC(CC(C4)C2)C3)cn1` [Compound 98] and `CCCC(=O)Nc1ccc(NC(=O)C23CC4CC(CC(C4)C2)C3)cn1` [Compound 99] are within 1.5-fold of each other in AC50: 16.5 µM for the first, 18.5 µM for the second.

First: COCC(=O)Nc1c(C(=O)Nc2ccc3c(c2)OCCO3)oc2ccccc12 [Compound 100]
Second: COCc1cc(C)nc(SCC(=O)Nc2ccc3c(c2)OCCO3)c1C#N [Compound 145]
The AC50 of the first is 18-fold lower: 0.66 µM for the first, 11.7 µM for the second.

Going from `COc1ccc(NC(=O)c2ncn(-c3ccccc3)n2)cc1Cl` [Compound 101] to `O=C(Nc1ccc2nn(-c3ccccc3)nc2c1)c1ccc(-c2cccc(Cl)c2)o1` [Compound 109], the AC50 rises from 9.27 µM to 18.5 µM (2-fold).

`COc1ccc(NC(=O)c2nnn(CC(=O)Nc3cccc(C)c3C)c2N)c(OC)c1` [Compound 102] and `COc1ccc(NC(=O)c2ccccc2NC(=O)c2ccccc2C(=O)O)c(OC)c1` [Compound 104] are within 1.5-fold of each other in AC50: 13.1 µM for the first, 18.5 µM for the second.

`COc1ccc(NC(=O)c2sc3nc[nH]c(=O)c3c2C)cc1Cl` [Compound 103] and `COc1ccc(C(Nc2ccccn2)c2c(NC(=O)c3ccco3)sc(C)c2C)cc1OC` (stereo not drawn) [Compound 115] are the same in AC50: 16.5 µM for the first, 16.5 µM for the second.

`NC(=O)c1ccccc1NC(=O)c1ccc(-c2ccc(Br)cc2)o1` [Compound 105] and `O=C(CSc1nnc(-c2ccc(O)cc2)o1)Nc1ccccc1Br` [Compound 123] are within 1.5-fold of each other in AC50: 1.17 µM for the first, 1.31 µM for the second.

Compared with `O=C(Nc1nnc(S(=O)(=O)N2CCCC2)s1)c1ccc(F)cc1` [Compound 106], `O=C(Nc1ccc2nc3n(c(=O)c2c1)CCCCC3)c1ccccc1Cl` [Compound 112] is 1.8-fold higher in AC50: 3.69 µM for the first, 6.56 µM for the second.

`O=C(Nc1ccccc1OC(=O)c1ccc(Cl)cc1)c1ccc(Cl)cc1` [Compound 107] and `Cn1nnc2cc(C(=O)Nc3ccccc3F)ccc21` [Compound 108] are within 1.5-fold of each other in AC50: 11.7 µM for the first, 14.7 µM for the second.

`Cc1ccc(-c2cc(C(=O)NCCc3ccccc3)c3c(-c4ccc(C)cc4)[nH]nc3c2)cc1` [Compound 110] and `Cc1ccc(SCC(=O)Nc2ccc3oc(-c4ccc(F)cc4)nc3c2)cc1` [Compound 140] are within 1.5-fold of each other in AC50: 9.26 µM for the first, 7.36 µM for the second.

`Cc1ccc(NC(=O)Cc2noc3ccccc23)nc1` [Compound 111] and `Cc1ccc(-c2csc(NC(=O)CSc3nc4ccccc4o3)n2)cc1` [Compound 147] are within 1.5-fold of each other in AC50: 16.5 µM for the first, 11.7 µM for the second.

Going from `Nc1cc(N)nc(SCC(=O)Nc2ccc(Br)cc2Cl)n1` [Compound 113] to `CSc1nsc(SCC(=O)Nc2ccc(F)cc2F)n1` [Compound 131], the AC50 falls from 11.7 µM to 4.14 µM (2.8-fold).

`Cc1cccc(NC(=O)C2Cc3ccccc3O/C2=N/O)c1` (stereo not drawn) [Compound 114] and `COc1ccc(-c2nnc(SCC(=O)Nc3cccc(C)c3)s2)cc1` [Compound 151] are within 1.5-fold of each other in AC50: 10.4 µM for the first, 13.1 µM for the second.

`CN1CCN(NC(=O)Nc2ccc(Br)cc2Cl)CC1` [Compound 116] and `CCOC(=O)N1CCN(C(=O)CSCc2ccccc2Cl)CC1` [Compound 160] are within 1.5-fold of each other in AC50: 13.1 µM for the first, 16.5 µM for the second.

Going from `COc1ccc(C(=O)NCCC2=CCCCC2)cc1OC1CCN(C(C)C)CC1` [Compound 117] to `CN(C(=O)CSc1nnc(-c2ccccc2F)o1)C1CCCCC1` [Compound 143], the AC50 falls from 16.5 µM to 9.27 µM (1.8-fold).

`COC(=O)/C(=C/c1cccc([N+](=O)[O-])c1)NC(=O)c1ccc(OC)cc1` [Compound 119] and `CCC(=O)Oc1ccc(NC(=O)CSCc2ccccc2)cc1` [Compound 146] are within 1.5-fold of each other in AC50: 10.4 µM for the first, 11.7 µM for the second.

Compared with `CCCC(=O)N(CCN1CCOCC1)c1nc2cc(C)c(C)cc2s1` [Compound 120], `COc1cc2cc(C#N)c(SCC(=O)N3CCOCC3)nc2cc1OC` [Compound 144] is 1.6-fold higher in AC50: 7.36 µM for the first, 11.7 µM for the second.

First: N#CC1Cc2cc3c(cc2N=C1SCC(=O)N1CCOCC1)OCO3 (stereo not drawn) [Compound 121]
Second: Cc1cc(C)c(C#N)c(SCC(=O)Nc2ccc3c(c2)OCO3)n1 [Compound 128]
The AC50 of the first is 5-fold lower: 0.66 µM for the first, 3.29 µM for the second.

Going from `O=C(CSc1nnc(-c2ccc(Cl)cc2)o1)Nc1ccc(F)cc1` [Compound 122] to `O=C(CSc1nnc(-c2cccnc2)o1)Nc1cccc(Cl)c1` [Compound 149], the AC50 rises from 1.04 µM to 13.1 µM (13-fold).

First: O=C(CSc1nnc(-c2ccccn2)o1)Nc1cccc(Cl)c1 [Compound 124]
Second: O=C(CSc1nnc(-c2ccc(C(F)(F)F)cn2)o1)Nc1cccc(Cl)c1 [Compound 132]
The AC50 of the first is 2.2-fold lower: 1.85 µM for the first, 4.14 µM for the second.

Compared with `COc1ccc(NC(=O)CSc2nc(SC)ns2)c(OC)c1` [Compound 125], `CSc1nsc(SCC(=O)Nc2ccccc2F)n1` [Compound 158] is 7.1-fold higher in AC50: 2.07 µM for the first, 14.7 µM for the second.

Going from `CC(C)(C)c1ccc(-c2nc(NC(=O)CSc3ccc4ccccc4n3)ns2)cc1` [Compound 126] to `CCOc1ccc(NC(=O)CSc2ccc3ccccc3n2)cc1` [Compound 163], the AC50 rises from 2.33 µM to 18.5 µM (7.9-fold).

First: Cc1c(-c2nnc(SCC(=O)Nc3ccccc3F)o2)nnn1-c1ccc(F)cc1 [Compound 127]
Second: COc1ccccc1NC(=O)CSc1nnc(-c2ccccn2)o1 [Compound 153]
The AC50 of the first is 5-fold lower: 2.93 µM for the first, 14.7 µM for the second.

First: Cc1cc(C(F)(F)F)c(C#N)c(SCC(=O)Nc2nc3cc(Br)ccc3s2)n1 [Compound 129]
Second: Cc1cc(C)c(C#N)c(SCC(=O)Nc2nonc2N)n1 [Compound 156]
The AC50 of the first is 4-fold lower: 3.69 µM for the first, 14.7 µM for the second.

Compared with `C#Cc1cccc(NC(=O)CSc2nnc(-c3ccc(C(F)(F)F)cn3)o2)c1` [Compound 130], `O=C(CSc1nnc(-c2ccccn2)o1)Nc1ccccc1C(F)(F)F` [Compound 142] is 2.2-fold higher in AC50: 4.14 µM for the first, 9.27 µM for the second.

`Cc1cc(NC(=O)CSc2nc3ccsc3c(=O)n2NC(=O)c2ccccc2)no1` [Compound 133] and `COc1ccc(NC(=O)CSc2nnc(-c3cccs3)o2)cc1` [Compound 137] are within 1.5-fold of each other in AC50: 5.21 µM for the first, 6.56 µM for the second.

Compared with `Cc1cccc(-c2nnc(SCC(=O)Nc3ccc(C)c(C)c3)o2)c1` [Compound 134], `Cc1cc(C)cc(NC(=O)CSc2nnc(-c3ccccc3C)o2)c1` [Compound 157] is 2.5-fold higher in AC50: 5.85 µM for the first, 14.7 µM for the second.

`N#CC1=C(SCC(=O)Nc2ccccc2)NC(=O)CC1c1ccc(O)cc1` (stereo not drawn) [Compound 136] and `CC(C)(C)c1ccc(NC(=O)CSc2nnc(-c3[nH]nc4ccccc34)o2)cc1` [Compound 138] are the same in AC50: 6.56 µM for the first, 6.56 µM for the second.

`COc1cccc(NC(=O)CSc2nnc(-c3cccs3)o2)c1` [Compound 139] and `Cc1ccc(NC(=O)CSc2nnc(-c3cccs3)o2)cc1S(=O)(=O)N(C)C` [Compound 141] are within 1.5-fold of each other in AC50: 6.56 µM for the first, 8.26 µM for the second.

`Cc1cccc(-c2nsc(SCC(=O)Nc3ccc4c(c3)OCO4)n2)c1` [Compound 148] and `Cc1ccc(-c2nsc(SCC(=O)Nc3ccc4c(c3)OCO4)n2)cc1` [Compound 161] are within 1.5-fold of each other in AC50: 13.1 µM for the first, 16.5 µM for the second.

`CSc1nsc(SCC(=O)N2CCCCC2)n1` [Compound 150] and `Cc1ccc(-c2nnc(SCC(=O)Nc3nccs3)n2N)cc1` [Compound 159] are within 1.5-fold of each other in AC50: 13.1 µM for the first, 16.5 µM for the second.

`O=C(CSc1ccccc1)NCCc1ccccc1` [Compound 152] and `CCC(C)NC(=O)CSc1ccc(Cl)cc1` (stereo not drawn) [Compound 162] are within 1.5-fold of each other in AC50: 14.7 µM for the first, 18.5 µM for the second.

Compound `CCN(CC)C(=O)CS/C(=N/C#N)Nc1ccccc1F` [Compound 155] has an AC50 of 14.7 µM.

Source: patent publication US20120010177A1, “MicroRNA Modulators and Method for Identifying And Using The Same” (The Wistar Institute / North Carolina State University, priority 2008, published 2012)
